Columns and labels:
ZfGBA1 = target: T1, ZfGBA1 (Zygaena filipendulae, UniProt A0A1W1EGM7); format: cell-based
T1 construct: expressed with and without (*) predicted native N-terminal signal peptide; retained in cells

ZfBGD2 = target: T2, ZfBGD2 (Zygaena filipendulae, UniProt A0A1W1EGN8); format: cell-based
T2 construct: expressed with and without (*) predicted native N-terminal signal peptide; retained in cells
T2 sequence (A0A1W1EGN8 19-524 limits assumed): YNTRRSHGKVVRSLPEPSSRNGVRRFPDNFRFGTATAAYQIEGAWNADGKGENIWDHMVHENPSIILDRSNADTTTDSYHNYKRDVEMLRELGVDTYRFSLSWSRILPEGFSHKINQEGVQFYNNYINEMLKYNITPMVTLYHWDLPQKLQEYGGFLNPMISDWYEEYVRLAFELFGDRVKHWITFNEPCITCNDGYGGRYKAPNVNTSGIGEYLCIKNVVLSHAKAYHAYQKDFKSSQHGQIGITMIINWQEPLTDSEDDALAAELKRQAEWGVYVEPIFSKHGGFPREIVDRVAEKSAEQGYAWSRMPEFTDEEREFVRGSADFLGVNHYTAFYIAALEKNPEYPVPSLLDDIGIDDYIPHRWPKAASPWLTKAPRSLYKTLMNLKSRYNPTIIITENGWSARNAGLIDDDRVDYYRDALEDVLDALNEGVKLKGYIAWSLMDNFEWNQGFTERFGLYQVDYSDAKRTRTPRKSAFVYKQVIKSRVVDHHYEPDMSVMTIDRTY

T1 sequence (A0A1W1EGM7 entry or part of it): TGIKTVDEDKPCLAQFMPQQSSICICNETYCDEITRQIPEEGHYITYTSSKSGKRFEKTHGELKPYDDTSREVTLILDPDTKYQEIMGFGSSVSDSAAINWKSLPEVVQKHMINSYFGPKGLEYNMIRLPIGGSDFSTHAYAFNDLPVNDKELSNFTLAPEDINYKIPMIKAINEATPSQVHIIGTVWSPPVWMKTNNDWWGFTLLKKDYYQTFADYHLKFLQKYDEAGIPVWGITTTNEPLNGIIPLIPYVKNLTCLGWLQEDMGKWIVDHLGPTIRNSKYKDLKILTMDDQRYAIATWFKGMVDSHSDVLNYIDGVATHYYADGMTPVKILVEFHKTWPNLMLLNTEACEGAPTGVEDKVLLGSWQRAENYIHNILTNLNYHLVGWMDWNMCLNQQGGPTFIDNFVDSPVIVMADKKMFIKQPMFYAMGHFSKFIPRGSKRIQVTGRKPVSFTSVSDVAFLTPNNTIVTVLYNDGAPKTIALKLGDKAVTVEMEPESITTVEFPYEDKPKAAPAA

## CC[C@](C)(C#N)O[C@@H]1O[C@H](CO)[C@@H](O)[C@H](O)[C@H]1O [lot, lotaustralin]
ZfGBA1
  HCN release from re-suspended Sf9 cells, Feigl-Anger paper and colorimetric: ZfBGD2 and ZfGBA1 also hydrolysed linamarin and lotaustralin
ZfBGD2
  HCN release from re-suspended Sf9 cells, Feigl-Anger paper and colorimetric: ZfBGD2 and ZfGBA1 also hydrolysed linamarin and lotaustralin

## CC(C)(C#N)O[C@@H]1O[C@H](CO)[C@@H](O)[C@H](O)[C@H]1O [lin, linamarin]
ZfGBA1
  HCN release from re-suspended Sf9 cells, Feigl-Anger paper and colorimetric: ZfBGD2 and ZfGBA1 also hydrolysed linamarin and lotaustralin
ZfBGD2
  HCN release from re-suspended Sf9 cells, Feigl-Anger paper and colorimetric: ZfBGD2 and ZfGBA1 also hydrolysed linamarin and lotaustralin

— PMC5493921 (Royal Society Open Science, 2017)
